Experimental findings from patent US8017612B2, “Piperazine compound and use thereof as a HCV polymerase inhibitor” (priority 2006, dated 2011) are described below.

For assay [1], the target named is T1, HCV polymerase (NS5B) type 1b (Hepatitis C virus genotype 1b, UniProt P26663).
T1 construct: a region encoding NS5B (J Virol 1991 March, 65(3), 1105-13, 544 amino acids after deletion of 47 amino acids on the C-terminal); 6xHis (C); made in house; host or cells: Escherichia coli
As to the kind of experiment: Assay of enzyme (HCV polymerase) inhibitory activity, type 1b enzyme. The note with it: HCV polymerase inhibitory activity (IC50), 1b, type 1b enzyme 0.5 μg/ml, 25° C., 60 min. The class given is biochemical, HCV BK strain (type 1b). The method in brief: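 His-tagged, C-terminally truncated NS5B (BK strain, 1b; 0.5 μg/ml) incubated with compound 60 min at 25 °C on 3′UTR-derived substrate RNA (5 μg/ml), 50 μM ATP/GTP/CTP, 2 μM UTP plus [3H]UTP, pH 7.5. Acid-precipitated RNA counted; IC50 from radioactivity with and without compound.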

Assay [2] concerns the target T2, HCV polymerase (NS5B) type 1a (Hepatitis C virus genotype 1a, UniProt P26664).
T2 construct: made in house; host or cells: Escherichia coli (by the 'similar method' of the 1b enzyme)
As to the kind of experiment: Assay of enzyme (HCV polymerase) inhibitory activity, type 1a enzyme. In kind it is biochemical, HCV type 1a (cloned from the blood of patients). The note with it: HCV polymerase inhibitory activity (IC50), 1a, type 1a enzyme 1.5 μg/ml, 25° C., 60 min. The method in brief:
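His-tagged NS5B, C-terminal 47 residues deleted, type 1a at 1.5 μg/ml, with 5 μg/ml HCV 3′UTR substrate RNA, 50 μM ATP/GTP/CTP, 2 μM UTP plus [3H]UTP, pH 7.5 Tris, 5 mM MgCl2; 60 min at 25° C. TCA-precipitated RNA counted by scintillation; IC50 from radioactivity with vs. without compound.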

Turning to `COc1ccccc1NC(=O)N1CCN(S(=O)(=O)c2ccc(C(F)(F)F)cc2)[C@@H](C(=O)NCc2ccc(C(C)C)cc2)C1` [Example 272, (R)-4-(4-trifluoromethyl-benzenesulfonyl)-piperazine-1,3-dicarboxylic acid 3-(4-isopropyl-benzylamide) 1-[(2-methoxy-phenyl)-amide]], the IC50 is 100 to 1000 nM in assay [1] and above 1000 nM in assay [2].

As for `COc1cccc(NC(=O)N2CCN(S(=O)(=O)c3ccc(C(F)(F)F)cc3)[C@@H](C(=O)NCc3ccc(C(C)C)cc3)C2)c1` [Example 273, (R)-4-(4-trifluoromethyl-benzenesulfonyl)-piperazine-1,3-dicarboxylic acid 3-(4-isopropyl-benzylamide) 1-[(3-methoxy-phenyl)-amide]], the IC50 in assay [1] was 100 to 1000 nM; in assay [2], above 1000 nM.

Turning to `CC(C)c1ccc(CNC(=O)[C@H]2CN(C(=O)CNC(=O)CCC(=O)O)CCN2S(=O)(=O)c2ccc(C(F)(F)F)cc2)cc1` [Example 274, N-{2-[(R)-3-(4-isopropyl-benzylcarbamoyl)-4-(4-trifluoromethyl-benzenesulfonyl)-piperazin-1-yl]-2-oxo-ethyl}-succinamic acid], the figures for the IC50 in assay [1] and in assay [2] were 100 to 1000 nM and above 1000 nM, respectively.

For the compound `COC(=O)c1cccc(NC(=O)N2CCN(S(=O)(=O)c3ccc(C(F)(F)F)cc3)[C@@H](C(=O)NCc3ccc(C(C)C)cc3)C2)c1` [Example 275, 3-{[(R)-3-(4-isopropyl-benzylcarbamoyl)-4-(4-trifluoromethyl-benzenesulfonyl)-piperazine-1-carbonyl]-amino}-benzoic acid methyl ester], the IC50 in assay [1] and in assay [2] was 100 to 1000 nM in each case.

In the case of `COC(=O)c1ccc(NC(=O)N2CCN(S(=O)(=O)c3ccc(C(F)(F)F)cc3)[C@@H](C(=O)NCc3ccc(C(C)C)cc3)C2)cc1` [Example 276, 4-{[(R)-3-(4-isopropyl-benzylcarbamoyl)-4-(4-trifluoromethyl-benzenesulfonyl)-piperazine-1-carbonyl]-amino}-benzoic acid methyl ester], the IC50 in assay [1] and in assay [2] was 100 to 1000 nM each time.

On to `COc1ccc(NC(=O)N2CCN(S(=O)(=O)c3ccc(C(F)(F)F)cc3)[C@@H](C(=O)NCc3ccc(C(C)C)cc3)C2)cc1` [Example 277, (R)-4-(4-trifluoromethyl-benzenesulfonyl)-piperazine-1,3-dicarboxylic acid 3-(4-isopropyl-benzylamide) 1-[(4-methoxy-phenyl)-amide]], for which the values for the IC50 in assay [1] and in assay [2] were 100 to 1000 nM and above 1000 nM, respectively.

For the compound `CC(C)c1ccc(CNC(=O)[C@H]2CN(C(=O)Cn3ncnn3)CCN2S(=O)(=O)c2ccc(C(F)(F)F)cc2)cc1` [Example 278, (R)-4-(2-tetrazol-2-yl-acetyl)-1-(4-trifluoromethyl-benzenesulfonyl)-piperazine-2-carboxylic acid 4-isopropyl-benzylamide], the IC50 in assay [1] and in assay [2] was below 100 nM throughout.

Regarding `COCC(=O)N1CCN(S(=O)(=O)c2ccc(C(F)(F)F)cc2)[C@@H](C(=O)NCc2ccc(C(C)C)cc2)C1` [Example 279, (R)-4-(2-methoxy-acetyl)-1-(4-trifluoromethyl-benzenesulfonyl)-piperazine-2-carboxylic acid 4-isopropyl-benzylamide], the IC50 in assay [1] and in assay [2] was 100 to 1000 nM each time.

Take `CC(=O)N1CCN(S(=O)(=O)c2ccc(C(C)C)cc2)[C@@H](C(=O)NCc2ccc(C3CC3)cc2)C1` [Example 280, 4-acetyl-1-(4-isopropyl-benzenesulfonyl)-piperazine-2-carboxylic acid 4-cyclopropyl-benzylamide]: the IC50 in assay [1] and in assay [2] was 100 to 1000 nM each time.

In the case of `CCCc1ccc(S(=O)(=O)N2CCN(C(=O)Nc3cccc(OCC(=O)OCC)c3)C[C@@H]2C(=O)NCc2ccc(C(C)C)cc2)cc1` [Example 281, (3-{[(R)-3-(4-isopropyl-benzylcarbamoyl)-4-(4-propyl-benzenesulfonyl)-piperazine-1-carbonyl]-amino}-phenoxy)-acetic acid ethyl ester], the IC50 is below 100 nM in assay [1] and 100 to 1000 nM in assay [2].

Consider `CCCc1ccc(S(=O)(=O)N2CCN(C(=O)Nc3cccc(OCC(=O)O)c3)C[C@@H]2C(=O)NCc2ccc(C(C)C)cc2)cc1` [Example 282, (3-{[(R)-3-(4-isopropyl-benzylcarbamoyl)-4-(4-propyl-benzenesulfonyl)-piperazine-1-carbonyl]-amino}-phenoxy)-acetic acid], for which the values for the IC50 in assay [1] and in assay [2] were below 100 nM and 100 to 1000 nM, respectively.

For `CC(=O)N1CCN(S(=O)(=O)c2ccc(CCC(=O)O)s2)[C@@H](C(=O)NCc2ccc(C(C)C)cc2)C1` [Example 283, 3-{5-[(R)-4-acetyl-2-(4-isopropyl-benzylcarbamoyl)-piperazine-1-sulfonyl]-thiophen-2-yl}-propionic acid], the IC50 in assay [1] and in assay [2] was above 1000 nM throughout.

Take `CC(=O)N1CCN(S(=O)(=O)c2ccc(OCC(F)(F)F)cc2)[C@@H](C(=O)NCc2ccc(C(C)C)cc2)C1` [Example 284, (R)-4-acetyl-1-[4-(2,2,2-trifluoro-ethoxy)-benzenesulfonyl]-piperazine-2-carboxylic acid 4-isopropyl-benzylamide]: the results for the IC50 in assay [1] and in assay [2] were below 100 nM and 100 to 1000 nM, respectively.

In the case of `CC(C)c1ccc(CNC(=O)[C@H]2CN(C(=O)Nc3ccc(C(=O)O)cc3)CCN2S(=O)(=O)c2ccc(C(F)(F)F)cc2)cc1` [Example 285, 4-{[(R)-3-(4-isopropyl-benzylcarbamoyl)-4-(4-trifluoromethyl-benzenesulfonyl)-piperazine-1-carbonyl]-amino}-benzoic acid], the IC50 in assay [1] was below 100 nM; in assay [2] it was 100 to 1000 nM.

Take `CC(C)c1ccc(CNC(=O)[C@H]2CN(C(=O)Nc3cccc(C(=O)O)c3)CCN2S(=O)(=O)c2ccc(C(F)(F)F)cc2)cc1` [Example 286, 3-{[(R)-3-(4-isopropyl-benzylcarbamoyl)-4-(4-trifluoromethyl-benzenesulfonyl)-piperazine-1-carbonyl]-amino}-benzoic acid]: the IC50 in assay [1] and in assay [2] was 100 to 1000 nM in each case.

For the compound `CCCc1ccc(S(=O)(=O)N2CCN(C(C)=O)C[C@@H]2C(=O)NCc2ccc(C(C)C)cc2)s1` [Example 287, (R)-4-acetyl-1-(5-propyl-thiophene-2-sulfonyl)-piperazine-2-carboxylic acid 4-isopropyl-benzylamide], the IC50 in assay [1] and in assay [2] was below 100 nM each time.

`COc1ccc(S(=O)(=O)N2CCN(C(C)=O)C[C@@H]2C(=O)NCc2ccc(C(C)C)cc2)cc1-c1nn[nH]n1` [Example 288, (R)-4-acetyl-1-[4-methoxy-3-(2H-tetrazol-5-yl)-benzenesulfonyl]-piperazine-2-carboxylic acid 4-isopropyl-benzylamide]: the IC50 in assay [1] and in assay [2] was 100 to 1000 nM each time.

For the compound `CC(=O)N1CCN(S(=O)(=O)c2ccc(CC(=O)O)s2)[C@@H](C(=O)NCc2ccc(C(C)C)cc2)C1` [Example 289, {5-[(R)-4-acetyl-2-(4-isopropyl-benzylcarbamoyl)-piperazine-1-sulfonyl]-thiophen-2-yl}-acetic acid], the IC50 in assay [1] and in assay [2] was above 1000 nM each time.
